Target: T1, Recombinant human cathepsin A (Homo sapiens, UniProt P10619)
T1 construct: Recombinant human cathepsin A (residues 29-480, with a C-terminal 10-His tag); 10-His (C); purchased R&D Systems 1049-SE
T1 sequence (P10619 29-326 limits assumed): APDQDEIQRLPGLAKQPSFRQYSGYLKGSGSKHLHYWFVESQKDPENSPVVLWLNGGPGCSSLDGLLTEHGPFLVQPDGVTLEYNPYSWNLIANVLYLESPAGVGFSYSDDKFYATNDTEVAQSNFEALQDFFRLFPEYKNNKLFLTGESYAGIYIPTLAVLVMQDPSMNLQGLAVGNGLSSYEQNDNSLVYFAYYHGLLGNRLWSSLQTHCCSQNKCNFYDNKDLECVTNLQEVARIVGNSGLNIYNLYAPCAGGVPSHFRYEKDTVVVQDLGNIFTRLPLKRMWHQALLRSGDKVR
T1 sequence (P10619 327-480 limits assumed): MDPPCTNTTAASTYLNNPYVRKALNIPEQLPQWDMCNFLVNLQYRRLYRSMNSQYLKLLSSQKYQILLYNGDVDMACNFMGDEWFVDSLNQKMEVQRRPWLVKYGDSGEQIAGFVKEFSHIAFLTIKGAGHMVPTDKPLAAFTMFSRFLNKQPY
Test: Cathepsin A inhibitory activity
Format: biochemical
Settings: activated recombinant human cathepsin A 833 ng/ml, Bodipy FL-labeled bradykinin 2 μM, pH 5.5, 15 min room temperature
Procedure, shortened: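 Cathepsin A activated by cathepsin L (15 min, 37 °C, pH 6.0), then preincubated 15 min at room temperature with compound in 25 mM MES pH 5.5, 5 mM DTT. Bodipy FL-bradykinin cleavage ran 15 min at room temperature; substrate and product separated by microfluidic capillary electrophoresis, turnover from peak areas.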

Structure (SMILES) | IC50 [nM]
O=C(O)C[C@H](NC(=O)c1nc(-c2ccccc2)oc1C(F)(F)F)c1cccc(F)c1 [Example 79, (S)-3-(3-Fluoro-phenyl)-3-[(2-phenyl-5-trifluoromethyl-oxazole-4-carbonyl)-amino]-propionic acid] | > 10000
O=C(O)C[C@H](NC(=O)c1noc(-c2ccccc2F)n1)c1cccc(C(F)(F)F)c1 [Example 81, (S)-3-{[5-(2-Fluoro-phenyl)-[1,2,4]oxadiazole-3-carbonyl]-amino}-3-(3-trifluoromethyl-phenyl)-propionic acid] | > 10000
Cc1ccc([C@H](CC(=O)O)NC(=O)c2nc(C3CC3)n(-c3ccccc3Cl)n2)cc1 [Example 83, (S)-3-{[1-(2-Chloro-phenyl)-5-cyclopropyl-1H-[1,2,4]triazole-3-carbonyl]-amino}-3-p-tolyl-propionic acid] | > 10000
CCCc1nc(C(=O)N[C@@H](CC(=O)O)c2ccc(C)cc2)nn1-c1ccccc1Cl [Example 88, (S)-3-{[1-(2-Chloro-phenyl)-5-propyl-1H-[1,2,4]triazole-3-carbonyl]-amino}-3-p-tolyl-propionic acid] | 335
Cc1oc(-c2ccccc2F)nc1C(=O)N[C@@H](CC(=O)O)c1cccc(C(F)(F)F)c1 [Example 92, (S)-3-{[2-(2-Fluoro-phenyl)-5-methyl-oxazole-4-carbonyl]-amino}-3-(3-trifluoromethyl-phenyl)-propionic acid] | 1140
Cc1oc(-c2ccccc2F)nc1C(=O)N[C@@H](CC(=O)O)c1ccc(C(F)(F)F)cc1 [Example 93, (S)-3-{[2-(2-Fluoro-phenyl)-5-methyl-oxazole-4-carbonyl]-amino}-3-(4-trifluoromethyl-phenyl)-propionic acid] | 944
Cc1ccccc1[C@H](CC(=O)O)NC(=O)c1nn(C)cc1NS(=O)(=O)CC(C)(C)C [Example 95, (S)-3-{[4-(2,2-Dimethyl-propane-1-sulfonylamino)-1-methyl-1H-pyrazole-3-carbonyl]-amino}-3-o-tolyl-propionic acid] | > 10000
O=C(O)C[C@H](NC(=O)c1nc(-c2ccccc2)oc1C(F)(F)F)c1cccc(Cl)c1 [Example 96, (S)-3-(3-Chloro-phenyl)-3-[(2-phenyl-5-trifluoromethyl-oxazole-4-carbonyl)-amino]-propionic acid] | 10300
O=C(N[C@@H](Cc1ccc(Cl)cc1)C(=O)O)c1noc(-c2cnccc2C(F)(F)F)n1 [Example 99, (S)-3-(4-Chloro-phenyl)-2-{[5-(4-trifluoromethyl-pyridin-3-yl)-[1,2,4]oxadiazole-3-carbonyl]-amino}-propionic acid] | > 10000
CCCC1CCCCN1C(=O)c1cc(C(=O)N[C@@H](CC(=O)O)c2ccccc2)nn1CC (stereo partly drawn) [Example 100, (S)-3-{[1-Ethyl-5-(2-propyl-piperidine-1-carbonyl)-1H-pyrazole-3-carbonyl]-amino}-3-phenyl-propionic acid] | 4750
O=C(O)C[C@H](NC(=O)c1noc(-c2cccc(F)c2F)n1)c1ccccc1C(F)(F)F [Example 101, (S)-3-{[5-(2,3-Difluoro-phenyl)-[1,2,4]oxadiazole-3-carbonyl]-amino}-3-(2-trifluoromethyl-phenyl)-propionic acid] | > 10000
CC(C)c1oc(-c2ccccc2)nc1C(=O)N[C@@H](CC(=O)O)c1ccc(Cl)cc1Cl [Example 105, (S)-3-(2,4-Dichloro-phenyl)-3-[(5-isopropyl-2-phenyl-oxazole-4-carbonyl)-amino]-propionic acid] | 9210
CCc1nc(C(=O)N[C@@H](CC(=O)O)c2ccc(C)cc2)nn1-c1c(Cl)cccc1Cl [Example 107, (S)-3-{[1-(2,6-Dichloro-phenyl)-5-ethyl-1H-[1,2,4]triazole-3-carbonyl]-amino}-3-p-tolyl-propionic acid] | 545

Further lines, results first:

IC50 [nM] | Structure (SMILES)
590 | Cc1oc(-c2ccccc2)nc1C(=O)N[C@@H](CC(=O)O)c1cccc(Cl)c1Cl [Example 76, (S)-3-(2,3-Dichloro-phenyl)-3-[(5-methyl-2-phenyl-oxazole-4-carbonyl)-amino]-propionic acid]
1910 | Cc1ccccc1[C@H](CC(=O)O)NC(=O)c1nc(-c2ccccc2)oc1C(F)(F)F [Example 77, (S)-3-[(2-Phenyl-5-trifluoromethyl-oxazole-4-carbonyl)-amino]-3-o-tolyl-propionic acid]
8470 | Cc1oc(-c2ccccc2)nc1C(=O)N[C@@H](CC(=O)O)c1ccccc1C(F)(F)F [Example 78, (S)-3-[(5-Methyl-2-phenyl-oxazole-4-carbonyl)-amino]-3-(2-trifluoromethyl-phenyl)-propionic acid]
11900 | O=C(O)C[C@H](NC(=O)c1noc(-c2ccccc2F)n1)c1ccccc1C(F)(F)F [Example 80, (S)-3-{[5-(2-Fluoro-phenyl)-[1,2,4]oxadiazole-3-carbonyl]-amino}-3-(2-trifluoromethyl-phenyl)-propionic acid]
> 10000 | Cc1ccccc1[C@H](CC(=O)O)NC(=O)c1nc(C2CC2)n(-c2ccccc2Cl)n1 [Example 82, (S)-3-{[1-(2-Chloro-phenyl)-5-cyclopropyl-1H-[1,2,4]triazole-3-carbonyl]-amino}-3-o-tolyl-propionic acid]
53.8 | Cc1ccccc1[C@H](CC(=O)O)NC(=O)c1nc(-c2ccccc2)n(-c2ccccc2)n1 [Example 84, (S)-3-[(1,5-Diphenyl-1H-[1,2,4]triazole-3-carbonyl)-amino]-3-o-tolyl-propionic acid]
280 | Cc1ccc([C@H](CC(=O)O)NC(=O)c2nc(C(C)C)n(-c3ccccc3Cl)n2)cc1 [Example 85, (S)-3-{[1-(2-Chloro-phenyl)-5-isopropyl-1H-[1,2,4]triazole-3-carbonyl]-amino}-3-p-tolyl-propionic acid]
2230 | O=C(O)CC(Cc1ccccc1)NC(=O)c1nc(-c2ccccc2)n(-c2ccccc2)n1 (centres unmarked) [Example 86, 3-[(1,5-Diphenyl-1H-[1,2,4]triazole-3-carbonyl)-amino]-4-phenyl-butyric acid]
95 | Cc1ccccc1[C@H](CC(=O)O)NC(=O)c1nc(C(C)C)n(-c2ccccc2Cl)n1 [Example 87, (S)-3-{[1-(2-Chloro-phenyl)-5-isopropyl-1H-[1,2,4]triazole-3-carbonyl]-amino}-3-o-tolyl-propionic acid]
127 | CCCc1nc(C(=O)N[C@@H](CC(=O)O)c2ccccc2C)nn1-c1ccccc1Cl [Example 89, (S)-3-{[1-(2-Chloro-phenyl)-5-propyl-1H-[1,2,4]triazole-3-carbonyl]-amino}-3-o-tolyl-propionic acid]
353 | O=C(O)C[C@H](NC(=O)c1nc(-c2ccccc2)n(-c2ccccc2)n1)c1ccccc1F [Example 90, (S)-3-[(1,5-Diphenyl-1H-[1,2,4]triazole-3-carbonyl)-amino]-3-(2-fluoro-phenyl)-propionic acid]
517 | O=C(O)C[C@H](NC(=O)c1nc(-c2ccccc2)n(-c2ccccc2)n1)c1ccc(F)cc1 [Example 91, (S)-3-[(1,5-Diphenyl-1H-[1,2,4]triazole-3-carbonyl)-amino]-3-(4-fluoro-phenyl)-propionic acid]
514 | Cc1oc(-c2ccccc2F)nc1C(=O)N[C@@H](CC(=O)O)c1cccc(Cl)c1Cl [Example 94, (S)-3-(2,3-Dichloro-phenyl)-3-{[2-(2-fluoro-phenyl)-5-methyl-oxazole-4-carbonyl]-amino}-propionic acid]
7370 | O=C(O)C[C@H](NC(=O)c1nc(-c2ccccc2)oc1C(F)(F)F)c1ccccc1Cl [Example 97, (S)-3-(2-Chloro-phenyl)-3-[(2-phenyl-5-trifluoromethyl-oxazole-4-carbonyl)-amino]-propionic acid]
75 | Cc1ccccc1[C@H](CC(=O)O)NC(=O)c1cc(-c2ccccc2)n(Cc2ccccc2)n1 [Example 98, (S)-3-[(1-Benzyl-5-phenyl-1H-pyrazole-3-carbonyl)-amino]-3-o-tolyl-propionic acid]
440 | COc1cccc([C@H](CC(=O)O)NC(=O)c2nc(-c3ccccc3)n(-c3ccccc3)n2)c1 [Example 102, (S)-3-[(1,5-Diphenyl-1H-[1,2,4]triazole-3-carbonyl)-amino]-3-(3-methoxy-phenyl)-propionic acid]
598 | CC(C)c1oc(-c2ccccc2)nc1C(=O)N[C@@H](CC(=O)O)c1cccc(Cl)c1Cl [Example 103, (S)-3-(2,3-Dichloro-phenyl)-3-[(5-isopropyl-2-phenyl-oxazole-4-carbonyl)-amino]-propionic acid]
128 | O=C(O)C[C@H](NC(=O)c1nc(-c2ccccc2)n(-c2ccccc2)n1)c1cccc(Cl)c1 [Example 104, (S)-3-(3-Chloro-phenyl)-3-[(1,5-diphenyl-1H-[1,2,4]triazole-3-carbonyl)-amino]-propionic acid]
119 | O=C(O)C[C@H](NC(=O)c1nc(-c2ccccc2)n(-c2ccccc2)n1)c1ccccc1Cl [Example 106, (S)-3-(2-Chloro-phenyl)-3-[(1,5-diphenyl-1H-[1,2,4]triazole-3-carbonyl)-amino]-propionic acid]
